One assay deals with E. coli O157:H7 cells. The format is cell-based, Escherichia coli O157:H7.
In the next assay the test system is phage T7. The experiment in a line: Survivor population of phage T7 after sanitizer treatment. The format is cell-based. Particulars: 2 min, 4° C.

As to `CC(=O)OO` [PAA, peracetic acid], in the assay on E. coli O157:H7 cells, the “further inactivation of E. coli O157:H7 with an increase of PAA concentration” value was “no significant inactivation”, the “inactivation of E. coli O157:H7 cells” value worked out at 2 log and the “survivors of E. coli O157:H7” value is on record as “around 4 log”. In addition, the “inactivation of phage T7” value in the assay with phage T7 (PAA at 80 ppm, 9 log inoculum level) is listed as “more than 6 log”. Also, the “complete inactivation of phages” value in the assay with phage T7 (PAA up to 80 ppm, 9 log inoculum level) was “complete inactivation of phages (9 log inoculum level) was not observed”.
Consider `OCl` [chlorine, sodium hypochlorite], for which, in the assay on phage T7 (lowest concentration tested, 2 ppm of free chlorine), the “complete inactivation of inoculated phages” value is “complete inactivation of inoculated phages was observed”.

The values above are taken from US20220018836A1, “NON-LIVING SURROGATE INDICATORS AND METHODS FOR SANITATION VALIDATION” (priority 2018, published 2022).
